Assay [1] relates to EGF receptor tyrosine kinase. The settings on record: in words; Fry et al., Science, 1994, 265, 1093; cited from earlier work.
For assay [2], the system named is KB cells. Kind of assay: in vitro assay of inhibition of EGF-stimulated growth of the human naso-pharyngeal cancer cell line KB (Test (b)). The assay is classed as cell-based. The settings on record: 72 h, EGF 10 ng/ml, 3 days. The method, then:
(b) An in vitro assay which determines the ability of a test compound to inhibit the EGF-stimulated growth of the human naso-pharyngeal cancer cell line KB. KB cells were seeded into wells at a density of 1×10^4 -1.5×10^4 cells per well and grown for 24 hours in DMEM supplemented with 5% FCS (charcoal-stripped). Cell growth was determined after incubation for 3 days by the extent of metabolism of MTT tetrazolium dye to furnish a bluish colour. Cell growth was then determined in the presence of EGF (10 ng/ml) or in the presence of EGF (10 ng/ml) and a test compound at a range of concentrations. An IC50 value could then be calculated.

Assay [3] concerns xenografts of the human vulval epidermoid carcinoma cell line A431. The assay can be described thus: in vivo assay in athymic nude mice of inhibition of growth of A431 xenografts (Test (d)). The settings on record: 200 mg/kg/day, once daily, usually oral. More on the design: species or system athymic nude mice (human A431 xenograft). The method, then:
(d) An in-vivo assay in a group of athymic nude mice (strain ONU:Alpk) which determines the ability of a test compound (usually administered orally as a ball-milled suspension in 0.5% polysorbate) to inhibit the growth of xenografts of the human vulval epidermoid carcinoma cell line A431.
A431 cells were maintained in culture in DMEM supplemented with 5% FCS and 2 mM glutamine. Freshly cultured cells were harvested by trypsinization and injected subcutaneously (10 million cells/0.1 ml/mouse) into both flanks of a number of donor nude mice. When sufficient tumour material was available (after approximately 9 to 14 days), fragments of tumour tissue were transplanted into the flanks of recipient nude mice (test day 0). On the eighth day after transplantation (test day 7) groups of 8 to 10 mice with similar-sized tumours were selected and dosing of the test compound was commenced. Once-daily dosing of test compound was continued for a total of 13 days (test days 7 to 19 inclusive). In some studies the dosing of the test compound was continued beyond test day 19, for example to test day 26. In each case, on the following day the animals were killed and final tumour volume was calculated from measurements of the length and width of the tumours. Results were calculated as a percentage inhibition of tumour volume relative to untreated controls.

The test system of assay [4] is liver hepatocyte growth. The assay can be described thus: in vivo assay in male rats of inhibition of TGFα-stimulated liver hepatocyte growth (Test (c)). The settings on record: Rattus norvegicus, usually oral, inhibition of BrdU uptake, approximate ED50. On the procedure: (c) An in vivo assay in a group of male rats which determines the ability of a test compound (usually administered orally as a ball-milled suspension in 0.5% polysorbate) to inhibit the stimulation of liver hepatocyte growth caused by the administration of the growth factor TGFα (400 μg/kg subcutaneously, usually dosed twice, 3 and 7 hours respectively after the administration of the test compound).
In a control group of rats, the administration of TGFα causes on average a 5-fold stimulation of liver hepatocyte growth.
Cell-growth in the control and test animals is determined as follows:
On the morning of the day after the dosing of the test compound (or 0.5% polysorbate in the control group), the animals are dosed with bromodeoxyuridine (BrdU; 100 mg/kg intraperitoneally). The animals are killed four hours later and the livers are excised. […] Further tests were carried out using a range of doses of the test compounds to allow the calculation of an approximate ED50 value for the inhibition of liver hepatocyte proliferation as determined by inhibition of the uptake of BrdU.

Assay [5] has as its target T1, EGF receptor tyrosine kinase (Homo sapiens, UniProt P00533).
T1 construct: Receptor tyrosine kinase was obtained in partially purified form from A-431 cells; endogenous in cells; host or cells: A-431 cells (human vulval carcinoma), Triton X-100-solubilised membrane fraction
The assay can be described thus: in vitro assay of inhibition of the enzyme EGF receptor tyrosine kinase (Test (a)). In kind it is biochemical. The settings on record: EGF receptor tyrosine kinase from A-431 cells. The method, then:
(a) An in vitro assay which determines the ability of a test compound to inhibit the enzyme EGF receptor tyrosine kinase. Receptor tyrosine kinase was obtained in partially purified form from A-431 cells (derived from human vulval carcinoma) by the procedures described below which are related to those described by Carpenter et al., J. Biol. Chem., 1979, 254, 4884, Cohen et al, J. Biol. Chem., 1982, 257, 1523 and by Braun et al., J. Biol. Chem., 1984, 259, 2051.
A-431 cells were grown to confluence using Dulbecco's modified Eagle's medium (DMEM) containing 5% fetal calf serum (FCS). The obtained cells were homogenised in a hypotonic borate/EDTA buffer at pH 10.1. The homogenate was centrifuged at 400 g for 10 minutes at 0-4° C. The supernatant was centrifuged at 25,000 g for 30 minutes at 0-4° C. […]
The test compound/EGF mixture solution (5 μl) was added to the test enzyme solution (10 μl) and the mixture was incubated at 0-4° C. for 30 minutes. […] Radioactivity present in the filter paper was measured using a liquid scintillation counter (Sequence A). […]
Receptor tyrosine kinase inhibition was calculated as follows: [formula]
The extent of inhibition was then determined at a range of concentrations of test compound to give an IC50 value.

For assay [6], the system named is another carcinoma which does not express EGF receptor tyrosine kinase. The settings on record: athymic nude mice; Toi et al., 1990; cited from earlier work.
Assay [7] relates to human mammary carcinoma which expresses EGF receptor tyrosine kinase. Particulars: athymic nude mice; Toi et al., 1990; cited from earlier work.

Each structure is given as a SMILES string.

T1 sequence (P00533 25-1210): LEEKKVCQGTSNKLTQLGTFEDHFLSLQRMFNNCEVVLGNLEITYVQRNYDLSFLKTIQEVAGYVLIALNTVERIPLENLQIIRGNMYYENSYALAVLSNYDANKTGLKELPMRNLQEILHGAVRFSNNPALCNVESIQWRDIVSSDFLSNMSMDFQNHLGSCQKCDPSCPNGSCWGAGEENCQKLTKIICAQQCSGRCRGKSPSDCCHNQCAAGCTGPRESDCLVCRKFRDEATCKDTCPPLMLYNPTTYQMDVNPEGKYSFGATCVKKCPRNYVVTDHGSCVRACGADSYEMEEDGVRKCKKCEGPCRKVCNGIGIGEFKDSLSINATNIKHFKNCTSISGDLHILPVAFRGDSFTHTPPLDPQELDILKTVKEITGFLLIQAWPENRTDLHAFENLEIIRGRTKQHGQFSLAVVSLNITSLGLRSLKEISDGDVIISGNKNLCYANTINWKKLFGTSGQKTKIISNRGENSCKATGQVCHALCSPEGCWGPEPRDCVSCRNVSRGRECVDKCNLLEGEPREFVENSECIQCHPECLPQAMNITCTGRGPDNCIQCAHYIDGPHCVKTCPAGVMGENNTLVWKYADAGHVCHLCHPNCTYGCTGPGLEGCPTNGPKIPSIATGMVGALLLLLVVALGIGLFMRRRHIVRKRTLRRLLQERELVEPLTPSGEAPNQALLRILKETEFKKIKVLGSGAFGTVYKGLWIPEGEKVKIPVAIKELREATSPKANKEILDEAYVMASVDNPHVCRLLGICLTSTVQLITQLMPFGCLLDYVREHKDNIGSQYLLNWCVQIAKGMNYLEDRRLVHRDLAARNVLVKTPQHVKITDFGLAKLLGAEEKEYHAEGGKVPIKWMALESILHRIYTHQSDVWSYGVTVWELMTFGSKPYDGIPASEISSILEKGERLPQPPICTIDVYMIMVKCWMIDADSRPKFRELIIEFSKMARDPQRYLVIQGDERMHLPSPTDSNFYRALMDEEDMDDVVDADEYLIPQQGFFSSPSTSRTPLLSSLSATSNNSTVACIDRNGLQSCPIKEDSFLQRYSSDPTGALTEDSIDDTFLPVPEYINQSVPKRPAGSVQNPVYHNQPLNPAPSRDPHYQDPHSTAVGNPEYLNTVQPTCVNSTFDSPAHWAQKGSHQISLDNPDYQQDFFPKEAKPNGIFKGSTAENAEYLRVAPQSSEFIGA
T1 sequence (P01133 971-1023 partner limits assumed): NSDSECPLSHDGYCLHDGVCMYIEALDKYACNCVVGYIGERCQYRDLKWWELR

In the case of `COc1cc2ncnc(Nc3cccc(Br)c3)c2cc1OC` [4-(3-bromoanilino)-6,7-dimethoxyquinazoline], the “inhibition of EGF receptor tyrosine kinase” value in assay [1] is given as “highly potent inhibitor”.
The IC50 is the concentration at which inhibition is half-maximal. Read a high IC50 as a need for much substance. The term ED50 denotes the dose at which the effect has come halfway, by size or by number of responders. On to `Cc1cccc(Nc2ncnc3ccc(-n4ccnc4)cc23)c1` [4-(3-methylanilino)-6-(1-imidazolyl)quinazoline], for which the IC50 was 510 nM in assay [2] and 26 nM in assay [5]. In addition, in assay [3], the “inhibition in Test (d) (percentage inhibition of tumour volume)” value was found to be 63%. Besides, the ED50 in assay [4] was < 12.5 mg/kg.
Take `O=CN/C=C/c1cc(O)ccc1O` [erbstatin]: the “growth of another carcinoma not expressing EGF receptor tyrosine kinase” value in assay [6] is given as “without effect on the growth”. In addition, the “growth of transplanted human mammary carcinoma expressing EGF receptor tyrosine kinase” value in assay [7] was “specifically attenuates the growth”.

The record behind these values is patent publication US5955464A, “4-anilinoquinazoline derivatives bearing a heteroaryl substituted at the 6-position and possessing anti-cell-proliferation properties” (Zeneca Limited, priority 1994, dated 1999).
